Laboratory results as given in patent US12129265B2, “Therapeutic agents and uses thereof” (Ankh Life Sciences Limited, priority 2020, dated 2024).
Like-named read-outs stand apart in the source and are kept apart here.

Experiments:
Experiment in all cases: CellTiter-Glo in vitro cell proliferation assay, Example 8
Format in all cases: cell-based, Human
JIM1 cells = settings: JIM1, HMCL, read-out: Mean IC50
Protocol: (§1) In this Example, in vitro cell proliferation assays were performed using: (1) Human Myeloma tumor cell lines; (2) Human Lymphoma tumor cell lines; (3) Solid Human tumor cell lines; and (4) Parental, Lenalidomide resistant and Bortezomib resistant Jeko-1 Mantle cell Lymphoma tumor cell lines. The compounds tested were three diharmaline compounds, namely the 518B562 (or simply 562), 560, and 561 compounds. In addition, a monoharmaline product designated as 518F014 was also tested. This monoharmaline product had the following structure:
(§2) Each proliferation assay was carried out as follows. The test cells were plated in growth media using a 384-well microtiter plate at 50 μL volume. The cells were incubated for 24 hours at 37° C. in a humidified incubator. After 24 hours of incubation, the test compounds were added to the test wells in DSMO solvent, at concentrations ranging from 0.0075-100 μM. Control wells received equal volumes of DSMO, without compound. Following drugging, the cells were incubated for 72 hours at 37° C. in a humidified incubator. After this exposure, 100 μL of a 1:1 mixture of sterile water and CellTiter-Glo® reagent (Promega) was added to each well. The plates were then incubated for 60 minutes at room temperature, followed by recording the luminescence value of each well using a luminometer as a measure of cell proliferation.

DOHH-2 cells = settings: DoHH-2, GCB-DLBCL, read-out: Mean IC50
Protocol: as §1, §2

MIA PaCa-2 cells = settings: MIA PaCa-2, Pancreatic, read-out: Mean IC50
Protocol: as §1, §2

ASPC-1 cells = settings: ASPC-1, Pancreatic, read-out: Mean IC50
Protocol: as §1, §2

FaDu cells = settings: H&N - SC, read-out: Mean IC50
Protocol: as §1, §2

A2780 cells = settings: A2780, Ovarian, read-out: Mean IC50
Protocol: as §1, §2

L363 cells = settings: L363, PCL/MM, read-out: Mean IC50
Protocol: as §1, §2

KMM-1 cells = settings: KMM-1, HMCL-A, read-out: Mean IC50
Protocol: as §1, §2

RPMI-8226 cells = settings: RPMI-8226, HMM
Protocol: as §2
In this example, different cell lines were subjected to in vitro cell proliferation assays as described in Example 8. In particular, the cell lines are identified in the following Table 17, and the tissue types were: Pancreatic; Endometrial; Triple-Negative Breast Cancer (TNBC); Non-Small-Cell Lung Carcinoma (NSCLC); Ovarian; Renal Cell Carcinoma (RCC); Cervical-Squamous Cell; […] (H&N-Squamous Cell); Germinal Center B Cell-Like Novo Diffuse Large B-Cell Lymphoma (GCB-DLBCL); Activated B-Cell—Diffuse Large B Cell Lymphoma (ABC-DLBCL); Human Myeloma; Human Myeloma Cell Line Lymphocyte-Like; Human Myeloma Cell Line Lymphocyte-Like Myeloma Pleural Effusion Infiltration; Human Multiple Myeloma; Plasma Cell Leukemia/Multiple Myeloma Epstein-Barr Nuclear Antigen-Negative (EBNA-Negative) and to Express mRNA for Proto-Oncogene B-Cell Lymphoma 2 (BCL2); Multiple Myeloma from Peripheral Blood Type IgD Lmabda.

MDA-MB-468 cells = settings: MDA-MB-468, TNBC; read-out: Mean IC50
Protocol: as §1, §2

A2780CP cells = settings: Ovarian, read-out: Mean IC50
Protocol: as §1, §2

OCI-LY3 cells = settings: OCI-LY3, ABC-DLBCL; read-out: Mean IC50
Protocol: as §1, §2

KMS-34 cells = settings: KMS-34, HMCL-B; read-out: Mean IC50
Protocol: as §1, §2

AN3CA cells = settings: Endometrial, read-out: Mean IC50
Protocol: as §1, §2

MDA-MB-231 cells = settings: MDA-MB-231, TNBC; read-out: Mean IC50
Protocol: as §1, §2

MOLP-8 cells = settings: MOLP-8, MM IgD; read-out: Mean IC50
Protocol: as §1, §2

SiHA cells = settings: Cervical - SC, read-out: Mean IC50
Protocol: as §1, §2

BxPC-3 cells = settings: BxPC-3, Pancreatic; read-out: Mean IC50
Protocol: as §1, §2

HEC-1a cells = settings: Endometrial, read-out: Mean IC50
Protocol: as §1, §2

A498 cells = settings: A498, RCC; read-out: Mean IC50
Protocol: as §1, §2

H1650 (EGFR mut) cells = settings: NSCLC, read-out: Mean IC50
Protocol: as §1, §2

H1975 (EGFR mut) cells = settings: NSCLC, read-out: Mean IC50
Protocol: as §1, §2

HCC70 cells = settings: HCC70, TNBC; read-out: Mean IC50
Protocol: as §1, §2

SMILES	IC50 (RPMI-8226 cells)	IC50 (MDA-MB-468 cells)	IC50 (A2780CP cells)	IC50 (JIM1 cells)	IC50 (DOHH-2 cells)	IC50 (MIA PaCa-2 cells)	IC50 (OCI-LY3 cells)	IC50 (FaDu cells)	IC50 (KMS-34 cells)	IC50 (L363 cells)	IC50 (KMM-1 cells)	IC50 (AN3CA cells)	IC50 (MDA-MB-231 cells)	IC50 (MOLP-8 cells)	IC50 (BxPC-3 cells)	IC50 (ASPC-1 cells)	IC50 (HEC-1a cells)	IC50 (A2780 cells)	IC50 (H1650 (EGFR mut) cells)	IC50 (H1975 (EGFR mut) cells)	further results
COc1cc(C2CC3(CC4(NCCc5sccc54)C2C2=NCCc4sccc42)NCCc2sccc23)ccc1O (stereo not shown) [HRM05]																					IC50 (JIM1 cells; Homo sapiens): 17.6 µM; IC50 (DOHH-2 cells; Homo sapiens): 17.6 µM; IC50 (MIA PaCa-2 cells; Homo sapiens): 12.2 µM; IC50 (ASPC-1 cells; Homo sapiens, ASPC1): 20.2 µM; IC50 (FaDu cells; Homo sapiens): 14 µM; IC50 (A2780 cells; Homo sapiens): 15.9 µM; IC50 (L363 cells; Homo sapiens, L-363): 13.7 µM; IC50 (KMM-1 cells; Homo sapiens): 12.5 µM
COc1ccc2c3c([nH]c2c1)C(CC(CC1=NCCc2c1[nH]c1cc(OC)ccc21)c1ccc(OC(C)=O)c(OC)c1)=NCC3 [compound 6]	10.3 µM	14.5 µM	70.7 µM	18 µM	6.91 µM	13.6 µM	11.3 µM	15.8 µM	11 µM	16.3 µM	16.9 µM	21.4 µM	60.5 µM	11.5 µM	15.8 µM						IC50 (SiHA cells): 74.8 µM
COc1ccc(C(CC2=NCCc3c2[nH]c2cc(OC)ccc32)CC2=NCCc3c2[nH]c2cc(OC)ccc32)c(O)c1 [compound 8]	11.5 µM	8.45 µM	49.8 µM	14.3 µM	6.37 µM	24.2 µM	11.3 µM	16.1 µM	11.1 µM	12.6 µM	13.2 µM	20.2 µM	24.4 µM	10.1 µM	21.9 µM	55.6 µM	65.8 µM	18.7 µM	59.9 µM	55.1 µM	IC50 (A498 cells): 78.7 µM; IC50 (HCC70 cells): 24.9 µM
COc1ccc2c3c([nH]c2c1)C(CC(CC1=NCCc2c1[nH]c1cc(OC)ccc21)c1cc(Cl)c(O)c(OC)c1)=NCC3 [compound 9]	11.5 µM	12.7 µM	60.3 µM	40.6 µM	9.76 µM	52.6 µM	11.9 µM	72.3 µM	11.4 µM	19.7 µM	16 µM	29.3 µM	45.8 µM	6.59 µM	30 µM	70 µM	95.6 µM	35.7 µM	79.7 µM	54.6 µM	IC50 (HCC70 cells): 39 µM
